From patent US20100298141A1, “SUBSTITUTED PYRIDINE N-OXIDE HERBICIDES” (E. I. DU PONT DE NEMOURS AND COMPANY, priority 2007, published 2010)

Key:
Assay in all cases: Test F preemergence test
[1] = tested on: goosegrass; type: in vivo, Eleusine indica; settings: scale 0 to 100
Summary of the method: (§1)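 Preemergence application to planted seeds, or postemergence to sugarcane plants; compound in non-phytotoxic solvent mix plus surfactant. Greenhouse, 14-21 days. Visual rating vs. controls.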

[2] = tested on: itchgrass; type: in vivo, Rottboellia cochinchinensis; settings: scale 0 to 100
Summary of the method: as §1

[3] = tested on: dallisgrass; type: in vivo, Paspalum dilatatum; settings: scale 0 to 100
Summary of the method: as §1

[4] = tested on: kochia; type: in vivo, Kochia scoparia; settings: scale 0 to 100
Summary of the method: as §1

[5] = tested on: pitted morningglory; type: in vivo, Ipomoea lacunosa; settings: scale 0 to 100
Summary of the method: as §1

[6] = tested on: large crabgrass; type: in vivo, Digitaria sanguinalis; settings: scale 0 to 100
Summary of the method: as §1

[7] = tested on: barnyardgrass; type: in vivo, Echinochloa crus-galli
Summary of the method: as §1

[8] = tested on: Surinam grass; type: in vivo, Brachiaria decumbens; settings: scale 0 to 100
Summary of the method: as §1

[9] = tested on: quackgrass; type: in vivo, Elytrigia repens; settings: scale 0 to 100
Summary of the method: as §1

[10] = tested on: bermudagrass; type: in vivo, Cynodon dactylon; settings: scale 0 to 100
Summary of the method: as §1

[11] = tested on: common purslane; type: in vivo, Portulaca oleracea; settings: scale 0 to 100
Summary of the method: as §1

[12] = tested on: naked crabgrass; type: in vivo, Digitaria nuda; settings: scale 0 to 100
Summary of the method: as §1

[13] = tested on: prickly sida; type: in vivo, Sida spinosa; settings: scale 0 to 100
Summary of the method: as §1

[14] = tested on: Virginia dayflower; type: in vivo, Commelina virginica; settings: scale 0 to 100
Summary of the method: as §1

[15] = tested on: johnsongrass; type: in vivo, Sorghum halepense; settings: scale 0 to 100
Summary of the method: as §1

[16] = tested on: Italian ryegrass; type: in vivo, Lolium multiflorum; settings: scale 0 to 100
Summary of the method: as §1

[17] = tested on: common groundsel; type: in vivo, Senecio vulgaris; settings: scale 0 to 100
Summary of the method: as §1

[18] = tested on: common ragweed; type: in vivo, Ambrosia elation; settings: scale 0 to 100
Summary of the method: as §1

[19] = tested on: guineagrass; type: in vivo, Panicum maximum; settings: scale 0 to 100
Summary of the method: as §1

[20] = tested on: mustard; type: in vivo, Brassica nigra; settings: scale 0 to 100
Summary of the method: as §1

[21] = tested on: broadleaf signalgrass; type: in vivo, Brachiaria platyphylla; settings: scale 0 to 100
Summary of the method: as §1

Compound: CCn1nc(C(F)(F)F)c(CS(=O)(=O)c2cccc[n+]2[O-])c1OCC(F)(F)F [Compound 63]
- Plant response rating, Goosegrass ([1]; 16 g ai/ha, preemergence): 80
- Goosegrass plant response rating ([1]; 62 g ai/ha, Preemergence): 98
- Goosegrass plant response rating ([1]; 125 g ai/ha, preemergence): 100
- Plant response rating, Goosegrass ([1]; Preemergence, 31 g ai/ha): 90
- Plant response rating, Itchgrass ([2]; 16 g ai/ha, preemergence): 10
- Itchgrass plant response rating ([2]; 62 g ai/ha, Preemergence): 80
- Itchgrass plant response rating ([2]; 125 g ai/ha, preemergence): 90
- Plant response rating, Itchgrass ([2]; Preemergence, 31 g ai/ha): 50
- Plant response rating, Dallisgrass ([3]; 16 g ai/ha, preemergence): 15
- Dallisgrass plant response rating ([3]; 62 g ai/ha, Preemergence): 80
- Dallisgrass plant response rating ([3]; 125 g ai/ha, preemergence): 100
- Plant response rating, Dallisgrass ([3]; Preemergence, 31 g ai/ha): 50
- Plant response rating, Kochia ([4]; 16 g ai/ha, preemergence): 0
- Kochia plant response rating ([4]; 62 g ai/ha, Preemergence): 0
- Kochia plant response rating ([4]; 125 g ai/ha, preemergence): 100
- Plant response rating, Kochia ([4]; Preemergence, 31 g ai/ha): 0
- Plant response rating, Morningglory ([5]; 16 g ai/ha, preemergence): 0
- Morningglory plant response rating ([5]; 62 g ai/ha, Preemergence): 0
- Morningglory plant response rating ([5]; 125 g ai/ha, preemergence): 35
- Plant response rating, Morningglory ([5]; Preemergence, 31 g ai/ha): 0
- Plant response rating, Crabgrass, Large ([6]; 16 g ai/ha, preemergence): 25
- Crabgrass, Large plant response rating ([6]; 62 g ai/ha, Preemergence): 95
- Crabgrass, Large plant response rating ([6]; 125 g ai/ha, preemergence): 100
- Plant response rating, Crabgrass, Large ([6]; Preemergence, 31 g ai/ha): 90
- Plant response rating, Barnyardgrass ([7]; 16 g ai/ha, preemergence, scale 0 to 100 (0 no effect, 100 complete control)): 80
- Barnyardgrass plant response rating ([7]; 62 g ai/ha, Preemergence, scale 0 to 100): 95
- Barnyardgrass plant response rating ([7]; 125 g ai/ha, preemergence, scale 0 to 100): 100
- Plant response rating, Barnyardgrass ([7]; Preemergence, 31 g ai/ha, scale 0 to 100): 80
- Plant response rating, Surinam Grass ([8]; 16 g ai/ha, preemergence): 70
- Surinam Grass plant response rating ([8]; 125 g ai/ha, preemergence): 100
- Plant response rating, Surinam Grass ([8]; Preemergence, 62 g ai/ha): 100
- Plant response rating, Surinam Grass ([8]; Preemergence, 31 g ai/ha): 80
- Plant response rating, Quackgrass ([9]; 16 g ai/ha, preemergence): 0
- Quackgrass plant response rating ([9]; 62 g ai/ha, Preemergence): 95
- Quackgrass plant response rating ([9]; 125 g ai/ha, preemergence): 100
- Plant response rating, Quackgrass ([9]; Preemergence, 31 g ai/ha): 65
- Plant response rating, Bermudagrass ([10]; 16 g ai/ha, preemergence): 50
- Bermudagrass plant response rating ([10]; 62 g ai/ha, Preemergence): 95
- Bermudagrass plant response rating ([10]; 125 g ai/ha, preemergence): 100
- Plant response rating, Bermudagrass ([10]; Preemergence, 31 g ai/ha): 80
- Plant response rating, Purslane ([11]; 16 g ai/ha, preemergence): 0
- Purslane plant response rating ([11]; 62 g ai/ha, Preemergence): 0
- Purslane plant response rating ([11]; 125 g ai/ha, preemergence): 20
- Plant response rating, Purslane ([11]; Preemergence, 31 g ai/ha): 0
- Plant response rating, Crabgrass, Naked ([12]; 16 g ai/ha, preemergence): 70
- Crabgrass, Naked plant response rating ([12]; 62 g ai/ha, Preemergence): 100
- Crabgrass, Naked plant response rating ([12]; 125 g ai/ha, preemergence): 100
- Plant response rating, Crabgrass, Naked ([12]; Preemergence, 31 g ai/ha): 70
- Plant response rating, Prickly Sida ([13]; 16 g ai/ha, preemergence): 20
- Prickly Sida plant response rating ([13]; 62 g ai/ha, Preemergence): 65
- Prickly Sida plant response rating ([13]; 125 g ai/ha, preemergence): 90
- Plant response rating, Prickly Sida ([13]; Preemergence, 31 g ai/ha): 65
- Plant response rating, Dayflower ([14]; 16 g ai/ha, preemergence): 0
- Dayflower plant response rating ([14]; 62 g ai/ha, Preemergence): 100
- Dayflower plant response rating ([14]; 125 g ai/ha, preemergence): 100
- Plant response rating, Dayflower ([14]; Preemergence, 31 g ai/ha): 100
- Plant response rating, Johnsongrass ([15]; 16 g ai/ha, preemergence): 35
- Johnsongrass plant response rating ([15]; 62 g ai/ha, Preemergence): 100
- Johnsongrass plant response rating ([15]; 125 g ai/ha, preemergence): 100
- Plant response rating, Johnsongrass ([15]; Preemergence, 31 g ai/ha): 80
- Plant response rating, Ryegrass, Italian ([16]; 16 g ai/ha, preemergence): 0
- Ryegrass, Italian plant response rating ([16]; 125 g ai/ha, preemergence): 100
- Plant response rating, Ryegrass, Italian ([16]; Preemergence, 62 g ai/ha): 80
- Plant response rating, Ryegrass, Italian ([16]; Preemergence, 31 g ai/ha): 60
- Plant response rating, Groundsel ([17]; 16 g ai/ha, preemergence): 0
- Groundsel plant response rating ([17]; 62 g ai/ha, Preemergence): 0
- Groundsel plant response rating ([17]; 125 g ai/ha, preemergence): 0
- Plant response rating, Groundsel ([17]; Preemergence, 31 g ai/ha): 0
- Plant response rating, Ragweed ([18]; 16 g ai/ha, preemergence): 0
- Ragweed plant response rating ([18]; 125 g ai/ha, preemergence): 100
- Plant response rating, Ragweed ([18]; Preemergence, 62 g ai/ha): 90
- Plant response rating, Ragweed ([18]; Preemergence, 31 g ai/ha): 40
- Plant response rating, Guineagrass ([19]; 16 g ai/ha, preemergence): 70
- Guineagrass plant response rating ([19]; 62 g ai/ha, Preemergence): 100
- Guineagrass plant response rating ([19]; 125 g ai/ha, preemergence): 100
- Plant response rating, Guineagrass ([19]; Preemergence, 31 g ai/ha): 95
- Plant response rating, Black Mustard ([20]; 16 g ai/ha, preemergence): 0
- Black Mustard plant response rating ([20]; 62 g ai/ha, Preemergence): 50
- Black Mustard plant response rating ([20]; 125 g ai/ha, preemergence): 90
- Plant response rating, Black Mustard ([20]; Preemergence, 31 g ai/ha): 50
- Plant response rating, Signalgrass ([21]; 16 g ai/ha, preemergence): 15
- Signalgrass plant response rating ([21]; 125 g ai/ha, preemergence): 100
- Plant response rating, Signalgrass ([21]; Preemergence, 62 g ai/ha): 100
- Plant response rating, Signalgrass ([21]; Preemergence, 31 g ai/ha): 40
